Measurements as given in patent publication US20240336565A1, “SOLID FORMS OF OSANETANT” (Acer Therapeutics, Inc., priority 2021, published 2024).
“Also recorded” adds a separate entry of the source. Marks after values point to notes of the source that are not given here.

Experiment: Salt screen: XRPD of isolated solids after drying at 40° C. and at 40° C./75% RH
Type: physicochemical
Details: for XRPD after drying at 40° C./75% RH: after 40° C. drying, dried at 40° C./75% RH for about 24 h, label = form after 40° C. drying; for XRPD after drying at 40° C.: isolated solids dried at 40° C. for about 24 h, label = wet form
Method: To approximately 20 mg of amorphous lyophilized osanetant was added 0.3 mL of solvent for liquid counterion experiments. 0.2 mL of solvent was employed for solid counterion experiments. […] To the stirring mixture was then added 1.05 mol eq. of the appropriate counterion. Where solid counterions were used, the vial which contained the counterion was washed in to the osanetant containing vial with 0.1 mL of the appropriate solvent. Additional solvent was added where necessary. The experiments were thermally cycled as follows: heated from 25 to 40° C. at a rate of 0.1° C./min; 1 h at 40° C.; Cool to 5° C. at a rate of 0.1° C.; 1 h at 5° C.; 40° C. at a rate of 0.1° C./min; […] The crystallization experiments were thermally cycled overnight, then slurries were isolated by centrifugation. XRPD analysis was carried out on any isolated solids or gums. The XRPD plate, and the isolated solids, were then dried at 40° C. for about 24 h, and XRPD analysis was repeated. The XRPD plate was then dried at 40° C./75% RH for about 24 h and XRPD analysis was again repeated. All other samples were allowed to evaporated at ambient temperature and pressure.

Row | Molecule | XRPD after drying at 40° C./75% RH | XRPD after drying at 40° C. | XRPD after drying at 40° C./75% RH (acetic acid)
1 | CC(=O)N(C)C1(c2ccccc2)CCN(CCC[C@]2(c3ccc(Cl)c(Cl)c3)CCCN(C(=O)c3ccccc3)C2)CC1.O=S(=O)(O)O [osanetant sulfuric acid Form 2, (R)-N-(1-(3-(1-benzoyl-3-(3,4-dichlorophenyl)piperidin-3-yl)propyl)-4-phenylpiperidin-4-yl)-N-methylacetamide sulfuric acid] | Form 3* | – | –
2 | CC(=O)N(C)C1(c2ccccc2)CCN(CCC[C@]2(c3ccc(Cl)c(Cl)c3)CCCN(C(=O)c3ccccc3)C2)CC1.O=S(=O)(O)c1ccccc1 [osanetant benzenesulfonic acid Form 2, (R)-N-(1-(3-(1-benzoyl-3-(3,4-dichlorophenyl)piperidin-3-yl)propyl)-4-phenylpiperidin-4-yl)-N-methylacetamide benzenesulfonic acid] | converted to Pattern 1; also recorded: Form 1 | – | –
3 | CC(=O)N(C)C1(c2ccccc2)CCN(CCC[C@]2(c3ccc(Cl)c(Cl)c3)CCCN(C(=O)c3ccccc3)C2)CC1.O=C(O)c1ccccc1 [osanetant benzoic acid Form 1, (R)-N-(1-(3-(1-benzoyl-3-(3,4-dichlorophenyl)piperidin-3-yl)propyl)-4-phenylpiperidin-4-yl)-N-methylacetamide benzoic acid] | no change in form; also recorded: stable | no change in form | –
4 | CC(=O)N(C)C1(c2ccccc2)CCN(CCC[C@]2(c3ccc(Cl)c(Cl)c3)CCCN(C(=O)c3ccccc3)C2)CC1.O=S(=O)(O)O [osanetant sulfuric acid Form 1, (R)-N-(1-(3-(1-benzoyl-3-(3,4-dichlorophenyl)piperidin-3-yl)propyl)-4-phenylpiperidin-4-yl)-N-methylacetamide sulfuric acid] | – | Form 2 | –
5 | CC(=O)N(C)C1(c2ccccc2)CCN(CCC[C@]2(c3ccc(Cl)c(Cl)c3)CCCN(C(=O)c3ccccc3)C2)CC1.O=P(O)(O)O [osanetant phosphoric acid Form 2, (R)-N-(1-(3-(1-benzoyl-3-(3,4-dichlorophenyl)piperidin-3-yl)propyl)-4-phenylpiperidin-4-yl)-N-methylacetamide phosphoric acid] | converted to Pattern 4; also recorded: Form 4* | Form 2 | –
6 | CC(=O)N(C)C1(c2ccccc2)CCN(CCC[C@]2(c3ccc(Cl)c(Cl)c3)CCCN(C(=O)c3ccccc3)C2)CC1.O=P(O)(O)O [osanetant phosphoric acid Form 1, (R)-N-(1-(3-(1-benzoyl-3-(3,4-dichlorophenyl)piperidin-3-yl)propyl)-4-phenylpiperidin-4-yl)-N-methylacetamide phosphoric acid] | converted to Pattern 4; also recorded: Form 4 | Form 1 | –
7 | CC(=O)N(C)C1(c2ccccc2)CCN(CCC[C@]2(c3ccc(Cl)c(Cl)c3)CCCN(C(=O)c3ccccc3)C2)CC1.CS(=O)(=O)O [osanetant methanesulfonic acid Form 1, (R)-N-(1-(3-(1-benzoyl-3-(3,4-dichlorophenyl)piperidin-3-yl)propyl)-4-phenylpiperidin-4-yl)-N-methylacetamide methanesulfonic acid] | Amorphous | Form 1 | –
8 | CC(=O)N(C)C1(c2ccccc2)CCN(CCC[C@]2(c3ccc(Cl)c(Cl)c3)CCCN(C(=O)c3ccccc3)C2)CC1.O=P(O)(O)O [osanetant phosphoric acid Form 3, (R)-N-(1-(3-(1-benzoyl-3-(3,4-dichlorophenyl)piperidin-3-yl)propyl)-4-phenylpiperidin-4-yl)-N-methylacetamide phosphoric acid] | retained; also recorded: stable; also recorded: Form 3 | Form 3 | –
9 | CC(=O)N(C)C1(c2ccccc2)CCN(CCC[C@]2(c3ccc(Cl)c(Cl)c3)CCCN(C(=O)c3ccccc3)C2)CC1.CC(=O)O [osanetant acetic acid Form 1, (R)-N-(1-(3-(1-benzoyl-3-(3,4-dichlorophenyl)piperidin-3-yl)propyl)-4-phenylpiperidin-4-yl)-N-methylacetamide acetic acid] | – | changed form on drying at 40 °C to Pattern 2 | –
10 | CC(=O)N(C)C1(c2ccccc2)CCN(CCC[C@]2(c3ccc(Cl)c(Cl)c3)CCCN(C(=O)c3ccccc3)C2)CC1.Cc1ccc(S(=O)(=O)O)cc1 [osanetant p-toluenesulfonic acid Form 2, (R)-N-(1-(3-(1-benzoyl-3-(3,4-dichlorophenyl)piperidin-3-yl)propyl)-4-phenylpiperidin-4-yl)-N-methylacetamide p-toluenesulfonic acid] | converted to Pattern 1; also recorded: Form 1 | retained; also recorded: Form 2 | –
11 | CC(=O)N(C)C1(c2ccccc2)CCN(CCC[C@]2(c3ccc(Cl)c(Cl)c3)CCCN(C(=O)c3ccccc3)C2)CC1.Cc1ccc(S(=O)(=O)O)cc1 [osanetant p-toluenesulfonic acid Form 4, (R)-N-(1-(3-(1-benzoyl-3-(3,4-dichlorophenyl)piperidin-3-yl)propyl)-4-phenylpiperidin-4-yl)-N-methylacetamide p-toluenesulfonic acid] | lost crystallinity; also recorded: Amorphous | – | –
12 | (R)-N-(1-(3-(1-benzoyl-3-(3,4-dichlorophenyl)piperidin-3-yl)propyl)-4-phenylpiperidin-4-yl)-N-methylacetamide naphthalene-2-sulfonic acid [osanetant naphthalene-2-sulfonic acid Form 4] | retained; also recorded: stable; also recorded: Form 4 | retained; also recorded: Form 4 | –
13 | CC(=O)N(C)C1(c2ccccc2)CCN(CCC[C@]2(c3ccc(Cl)c(Cl)c3)CCCN(C(=O)c3ccccc3)C2)CC1.CC(=O)O [osanetant acetic acid Form 2, (R)-N-(1-(3-(1-benzoyl-3-(3,4-dichlorophenyl)piperidin-3-yl)propyl)-4-phenylpiperidin-4-yl)-N-methylacetamide acetic acid] | – | – | retained; also recorded: stable
14 | CC(=O)N(C)C1(c2ccccc2)CCN(CCC[C@]2(c3ccc(Cl)c(Cl)c3)CCCN(C(=O)c3ccccc3)C2)CC1.O=P(O)(O)O [osanetant phosphoric acid Form 4, (R)-N-(1-(3-(1-benzoyl-3-(3,4-dichlorophenyl)piperidin-3-yl)propyl)-4-phenylpiperidin-4-yl)-N-methylacetamide phosphoric acid] | stable | – | –
15 | CC(=O)N(C)C1(c2ccccc2)CCN(CCC[C@]2(c3ccc(Cl)c(Cl)c3)CCCN(C(=O)c3ccccc3)C2)CC1.CCS(=O)(=O)O [osanetant ethanesulfonic acid Form 2, (R)-N-(1-(3-(1-benzoyl-3-(3,4-dichlorophenyl)piperidin-3-yl)propyl)-4-phenylpiperidin-4-yl)-N-methylacetamide ethanesulfonic acid] | Amorphous | – | –
16 | CC(=O)N(C)C1(c2ccccc2)CCN(CCC[C@]2(c3ccc(Cl)c(Cl)c3)CCCN(C(=O)c3ccccc3)C2)CC1.O=S(=O)(O)c1ccccc1 [osanetant benzenesulfonic acid Form 4, (R)-N-(1-(3-(1-benzoyl-3-(3,4-dichlorophenyl)piperidin-3-yl)propyl)-4-phenylpiperidin-4-yl)-N-methylacetamide benzenesulfonic acid] | converted to Pattern 1; also recorded: Form 1** | Form 4 | –
17 | CC(=O)N(C)C1(c2ccccc2)CCN(CCC[C@]2(c3ccc(Cl)c(Cl)c3)CCCN(C(=O)c3ccccc3)C2)CC1.CCS(=O)(=O)O [osanetant ethanesulfonic acid Form 1, (R)-N-(1-(3-(1-benzoyl-3-(3,4-dichlorophenyl)piperidin-3-yl)propyl)-4-phenylpiperidin-4-yl)-N-methylacetamide ethanesulfonic acid] | – | Form 2 | –
18 | (R)-N-(1-(3-(1-benzoyl-3-(3,4-dichlorophenyl)piperidin-3-yl)propyl)-4-phenylpiperidin-4-yl)-N-methylacetamide naphthalene-2-sulfonic acid [osanetant naphthalene-2-sulfonic acid Form 2] | retained; also recorded: stable; also recorded: Form 2* | retained; also recorded: Form 2* | –
19 | CC(=O)N(C)C1(c2ccccc2)CCN(CCC[C@]2(c3ccc(Cl)c(Cl)c3)CCCN(C(=O)c3ccccc3)C2)CC1.CS(=O)(=O)O [osanetant methanesulfonic acid Form 2, (R)-N-(1-(3-(1-benzoyl-3-(3,4-dichlorophenyl)piperidin-3-yl)propyl)-4-phenylpiperidin-4-yl)-N-methylacetamide methanesulfonic acid] | Amorphous | Form 2 | –
20 | CC(=O)N(C)C1(c2ccccc2)CCN(CCC[C@]2(c3ccc(Cl)c(Cl)c3)CCCN(C(=O)c3ccccc3)C2)CC1.O=C(O)C(O)C(O)C(=O)O [osanetant L-tartaric acid Form 1] | crystallinity was lost | no change | –
21 | CC(=O)N(C)C1(c2ccccc2)CCN(CCC[C@]2(c3ccc(Cl)c(Cl)c3)CCCN(C(=O)c3ccccc3)C2)CC1.O=C(O)/C=C/C(=O)O [osanetant fumaric acid Form 1] | crystallinity was lost | no change | –
